Here are results for one compound from the NIST ThermoML archive (doi:10.1016/j.fluid.2013.12.024).

The nature of data set [1]: Molar enthalpy of transition or fusion. Conditions: Crystal; DSC.
For data set [2] the following is noted: Crystal; DTA.

Numbers after ± are expanded uncertainties.

As to `O=c1c(-c2ccc(O)cc2)coc2cc(O)ccc12` [daidzein], the “Molar enthalpy of transition or fusion” value in data set [1] came to 8.38 ± 0.234 kcal/mol. For the same compound, in data set [2], the Normal melting temperature worked out at 315.67 ± 0.5 °C.
